Values quoted from earlier work in patent US20110038945A1, “Orally ingestable medicament and method for treating a heartburn inducing event or an acid reflux episode in a living human subject” (priority 2009, published 2011).

COc1cc(N)c(Cl)cc1C(=O)NC1CCN(CCCOc2ccc(F)cc2)CC1OC (centres unmarked) [cisapride]
deaths (included in the heart rhythm abnormality reports): more than 80 deaths
reports of heart rhythm abnormalities (linked to the drug at recall from the U.S. market in 2000): more than 300 reports
